From patent US10231986B2, “Amino acid phosphoramidate pronucleotides of 2′-cyano, azido and amino nucleosides for the treatment of HCV” (Centre National De La Recherche Scientifique, priority 2013, dated 2019)
Where two headings read alike, the source gives them in different places.

Experiments:
[1] = test system: HCV genotype 1b replicon in Huh-7-derived cell line (Zluc); test: HCV replicon assay (luciferase reporter); type: cell-based
Experimental: Huh-7-derived cell line (Zluc) that harbors an HCV genotype 1b replicon and a luciferase reporter gene was grown in Dulbecco's Modified Eagle Medium (DMEM) supplemented with 10% fetal bovine serum, 2 mM GlutaMAX, 1% MEM nonessential amino acids, 100 IU/mL penicillin, 100 μg/mL streptomycin, and 0.5 mg/mL Geneticin® (G418). For dose response testing the cells were seeded in 96-well plates at 7.5×10^3 cells per well in a volume of 50 μL, and incubated at 37° C./5% CO2. Drug solutions were made up freshly in Huh-7 media as 2× stocks. Ten additional 5-fold dilutions were prepared from these stocks in DMEM without G418. At least three hours after Zluc cells were seeded, drug treatment was initiated by adding 50 μL of drug dilutions to the plates in duplicate. Final concentrations of drug ranged from 100 μM to […]. Cells were then incubated at 37° C./5% CO2. Alternatively, compounds were tested at two concentrations (1 μM and 10 μM). […] For this, media was removed from the plates via gentle tapping. Fifty microliters of ONE-glo luciferase assay reagent was added to each well. The plates were shaken gently for 3 min at room temperature and luminescence was measured on a Victor^3 V 1420 multilabel counter (Perkin Elmer) with a 1 second read time using a 700 nm cut-off filter. The EC50 values were calculated from dose response curves from the resulting best-fit equations determined by Microsoft Excel and XLfit 4.1 software. When screening at two fixed concentrations, the results were expressed as % inhibition at 1 μM and 10 μM.

[2] = Cytotoxicity evaluation, CellTiter-Blue Cell Viability Assay; conditions: human
Zluc cells = test: as above; conditions: read-out: HCV Replicon CC50; Zluc cells, CellTiter-Blue
[3] = molecular target: T1, HCV genotype 1b NS5B protein containing the S282T mutation (Hepatitis C virus genotype 1b, UniProt Q9WMX2, S2701T); test: HCV polymerase enzyme assay, S282T mutant; type: biochemical
T1 construct: approximately 65 kDa HCV genotype 1b NS5B protein were used to generate recombinant HCV polymerases; made in house
From the text: (§1) Test compounds in the form of nucleoside triphosphates were examined for inhibitory activity against purified HCV polymerase in a standard assay. Bacterial expression constructs encoding the approximately 65 kDa HCV genotype 1b NS5B protein were used to generate recombinant HCV polymerases (with a deletion of the 21 carboxy terminal amino acids). Both the wild-type genotype 1b protein and protein containing the S282T mutation were expressed and purified for use in the enzymatic activity assay.
(§2) The enzymatic activity assay measured the inhibitory effect of increasing concentrations of test compound on the incorporation of α-[^33P]-labeled nucleotide into trichloroacetic acid-precipitable material. Recombinant polymerase and synthetic RNA template were combined in reaction buffer containing ribonucleoside triphosphates, α-[^33P]-labeled nucleotide and eight concentrations of test compound in three-fold dilutions. Reactions were incubated for two hours at 30° C.
(§3) Reactions were terminated by the addition of ice-cold trichloroacetic acid and sodium pyrophosphate to promote precipitation of newly-synthesized ribonucleic acid. Precipitable material from the reactions was collected by filtration onto 96-well filter plates, washed extensively with water, and quantified by liquid scintillation.
(§4) The inhibitory activity of test compounds was determined by fitting results to dose-response curves using XLfit software.

[4] = molecular target: T2, wild-type HCV genotype 1b NS5B protein (recombinant HCV polymerase) (Hepatitis C virus genotype 1b, UniProt Q9WMX2); test: HCV polymerase enzyme assay, wild-type; type: biochemical
T2 construct: approximately 65 kDa HCV genotype 1b NS5B protein were used to generate recombinant HCV polymerases; made in house
From the text: as §1, §2, §3, §4

[5] = Hepatitis C virus, 72 h, read-out: HCV Replicon EC50, Zluc cells, genotype 1b replicon, 72 hours of incubation
[6] = Hepatitis C virus, 72 h, Zluc cells, genotype 1b replicon, 72 hours of incubation, read-out: HCV Replicon EC50
[7] = Zluc cells, genotype 1b replicon, 72 hours of incubation, read-out: HCV Replicon EC50
[8] = Zluc cells (HCV replicon cells)

For `CC(C)OC(=O)[C@H](C)NP(=O)(OC[C@H]1O[C@@H](n2ccc(N)nc2=O)[C@H](N=[N+]=[N-])[C@@H]1O)Oc1ccccc1` (mixture of isomers) [Compound 530 Diastereomer Mix], the EC50 [1, 5] was > 10 µM and the CC50 at 72 h [2] was > 50 µM.

In the case of `CC(C)OC(=O)[C@H](C)NP(=O)(OC[C@H]1O[C@@H](n2ccc(=O)[nH]c2=O)[C@H](N)[C@@H]1O)Oc1ccccc1` (single isomer, unassigned) [Compound 526 Diastereomer 1], the EC50 [1, 6] is reported as > 10 µM and the CC50 at 72 h [2] is reported as > 50 µM.

With `CC(C)OC(=O)[C@H](C)NP(=O)(OC[C@H]1O[C@@H](n2ccc(=O)[nH]c2=O)[C@H](N)[C@@H]1O)Oc1ccccc1` (single isomer, unassigned) [Compound 526 Diastereomer 2] the EC50 [1, 7] was > 10 µM and the CC50 (Zluc cells) was > 50 µM.

With `CC(C)OC(=O)[C@H](C)NP(=O)(OC[C@H]1O[C@@H](n2ccc(=O)[nH]c2=O)[C@H](N=[N+]=[N-])[C@@H]1O)Oc1ccccc1` (single isomer, unassigned) [Compound 528 Diastereomer 1] the EC50 [1, 6] was > 10 µM and the CC50 at 72 h [2] was > 50 µM.

With `CC(C)OC(=O)[C@H](C)NP(=O)(OC[C@H]1O[C@@H](n2ccc(=O)[nH]c2=O)[C@H](N=[N+]=[N-])[C@@H]1O)Oc1ccccc1` (single isomer, unassigned) [Compound 528 Diastereomer 2] the EC50 [1, 7] was > 10 µM and the CC50 (Zluc cells) was > 50 µM.

With `CC(C)OC(=O)[C@H](C)NP(=O)(OC[C@H]1O[C@@H](n2ccc(N)nc2=O)[C@H](N=[N+]=[N-])[C@@H]1O)Oc1ccccc1` (single isomer, unassigned) [Compound 530 Diastereomer 1] the EC50 [1, 5] was > 10 µM and the CC50 at 72 h [2] was > 50 µM.

With `CC(C)OC(=O)[C@H](C)NP(=O)(OC[C@H]1O[C@@H](n2ccc(N)nc2=O)[C@H](N)[C@@H]1O)Oc1ccccc1` (single isomer, unassigned) [Compound 531 Diastereomer 1] the EC50 [1, 5] was > 10 µM and the CC50 at 72 h [2] was > 50 µM.

In the case of `CC(C)OC(=O)[C@H](C)NP(=O)(OC[C@H]1O[C@@H](n2ccc(=O)[nH]c2=O)[C@](C)(N=[N+]=[N-])[C@@H]1O)Oc1ccccc1` (single isomer, unassigned) [Reference Compound A18 Diastereomer 1, reference compound], the EC50 [1, 6] is reported as > 10 µM and the CC50 at 72 h [2] is reported as > 50 µM.

With `CC(C)OC(=O)[C@H](C)NP(=O)(OC[C@H]1O[C@@H](n2ccc(=O)[nH]c2=O)[C@](C)(N)[C@@H]1O)Oc1ccccc1` (single isomer, unassigned) [Reference Compound A19 Diastereomer 1, reference compound] the EC50 [1, 7] was > 10 µM and the CC50 at 72 h [2] was > 50 µM.

For `CC(C)OC(=O)[C@H](C)NP(=O)(OC[C@H]1O[C@@H](n2ccc(=O)[nH]c2=O)[C@](C)(N)[C@@H]1O)Oc1ccccc1` (single isomer, unassigned) [Reference Compound A19 Diastereomer 2, reference compound], the EC50 [1, 7] was 1 to 10 µM and the CC50 (Zluc cells) was > 50 µM.

For `CC(C)OC(=O)[C@@H](C)N[P@@](=O)(OC[C@H]1O[C@@H](n2ccc(N)nc2=O)[C@](C)(C#N)[C@@H]1O)Oc1ccccc1` [Compound 1a], the EC50 [1, 6] was > 10 µM and the CC50 at 72 h [2] was > 50 µM.

With `C[C@@]1(N=[N+]=[N-])[C@H](O)[C@@H](COP(=O)(O)OP(=O)(O)OP(=O)(O)O)O[C@H]1n1cnc2c(N)ncnc21` [Compound 201] the IC50 [3] was > 10 µM and the IC50 [4] was 0.25 to 1 µM.

In the case of `C[C@@]1(N=[N+]=[N-])[C@H](O)[C@@H](COP(=O)(O)OP(=O)(O)OP(=O)(O)O)O[C@H]1n1ccc(=O)[nH]c1=O` [Compound 202], the IC50 [3] is reported as > 10 µM and the IC50 [4] is reported as 0.25 to 1 µM.

For `C[C@@]1(N)[C@H](O)[C@@H](COP(=O)(O)OP(=O)(O)OP(=O)(O)O)O[C@H]1n1ccc(=O)[nH]c1=O` [Compound 203], the IC50 [3] was > 10 µM and the IC50 [4] was 1 to 10 µM.

For `C[C@@]1(C#N)[C@H](O)[C@@H](COP(=O)(O)OP(=O)(O)OP(=O)(O)O)O[C@H]1n1ccc(=O)[nH]c1=O` [Compound 204], the IC50 [3] was 1 to 10 µM and the IC50 [4] was < 0.25 µM.

`C[C@@]1(C#N)[C@H](O)[C@@H](COP(=O)(O)OP(=O)(O)OP(=O)(O)O)O[C@H]1n1ccc(N)nc1=O` [Compound 205] gave an IC50 [4] of 0.25 to 1 µM.

`C[C@@]1(N)[C@H](O)[C@@H](COP(=O)(O)OP(=O)(O)OP(=O)(O)O)O[C@H]1n1ccc(N)nc1=O` [Compound 206] showed an IC50 [4] of 1 to 10 µM.

In the case of `Nc1ccn([C@@H]2O[C@H](COP(=O)(O)OP(=O)(O)OP(=O)(O)O)[C@@H](O)[C@H]2N)c(=O)n1` [Compound 207], the IC50 [4] is reported as 0.25 to 1 µM.

With `C[C@@]1(N)[C@H](O)[C@@H](COP(=O)(O)OP(=O)(O)OP(=O)(O)O)O[C@H]1n1cnc2c(N)ncnc21` [Compound 208] the IC50 [3] was > 10 µM and the IC50 [4] was 1 to 10 µM.

With `C[C@]1(N=[N+]=[N-])C(n2cnc3c(N)ncnc32)O[C@H](CO)[C@H]1O` (stereo partly shown) [Reference Compound 101, reference compound] the EC50 [1, 6] was > 10 µM and the CC50 at 72 h [2, 8] was > 50 µM.

In the case of `C[C@@]1(N=[N+]=[N-])[C@H](O)[C@@H](CO)O[C@H]1n1ccc(=O)[nH]c1=O` [Reference Compound 102, reference compound], the EC50 [1, 6] is reported as > 10 µM and the CC50 at 72 h [2, 8] is reported as > 50 µM.

For `C[C@@]1(N)[C@H](O)[C@@H](CO)O[C@H]1n1ccc(=O)[nH]c1=O` [Reference Compound 103, reference compound], the EC50 [1, 6] was > 10 µM and the CC50 at 72 h [2, 8] was > 50 µM.

With `CC1(C#N)C(O)C(CO)OC1n1ccc(N)nc1=O` (stereo not shown) [Reference Compound A9b, reference compound] the EC50 [1, 7] was 1 to 10 µM and the CC50 (Zluc cells) was > 50 µM.
